# Laboratory results reported in ChEMBL document CHEMBL1135692, “Structure-activity relationships of the melanocortin tetrapeptide Ac-His-D-Phe-Arg-Trp-NH2 at the mouse melanocortin receptors. 4. Modifications at the Trp position” (J Med Chem, 2002).
# Target: Melanocortin receptor 4 (Mus musculus, UniProt P56450)
# Test: Activity in mouse melanocortin-4 receptor stably expressed in HEK293 cells
# Type: cell-based
# Sequence of Melanocortin receptor 4 (P56450 whole entry): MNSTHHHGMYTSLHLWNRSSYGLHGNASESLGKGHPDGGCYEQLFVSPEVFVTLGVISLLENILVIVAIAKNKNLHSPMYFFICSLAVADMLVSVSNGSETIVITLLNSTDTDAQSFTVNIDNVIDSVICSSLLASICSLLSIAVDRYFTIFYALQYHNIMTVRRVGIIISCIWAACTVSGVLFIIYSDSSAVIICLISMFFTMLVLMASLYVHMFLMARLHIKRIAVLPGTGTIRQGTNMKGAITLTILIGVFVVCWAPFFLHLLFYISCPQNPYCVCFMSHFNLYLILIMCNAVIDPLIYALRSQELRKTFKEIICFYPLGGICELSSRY
row,EC50 [nM],SMILES
1,11600,CC(=O)N[C@@H](Cc1c[nH]cn1)C(=O)N[C@H](Cc1ccccc1)C(=O)N[C@@H](CCCN=C(N)N)C(=O)N[C@H](C(N)=O)C(c1ccccc1)c1ccccc1
2,7800,CC(=O)N[C@@H](Cc1c[nH]cn1)C(=O)N[C@H](Cc1ccccc1)C(=O)N[C@@H](CCCN=C(N)N)C(=O)N[C@@H](Cc1ccccc1)C(N)=O
3,8500,CC(=O)N[C@@H](Cc1cnc[nH]1)C(=O)N[C@H](Cc1ccccc1)C(=O)N[C@@H](CCCN=C(N)N)C(=O)N1Cc2ccccc2C[C@H]1C(N)=O
4,39400,CC(=O)N[C@@H](Cc1cnc[nH]1)C(=O)N[C@H](Cc1ccccc1)C(=O)N[C@@H](CCCN=C(N)N)C(=O)N1Cc2ccccc2C[C@@H]1C(N)=O
5,43700,CC(=O)N[C@@H](Cc1c[nH]cn1)C(=O)N[C@H](Cc1ccccc1)C(=O)N[C@@H](CCCN=C(N)N)C(=O)N[C@@H](C)C(N)=O
6,143,CC(=O)N[C@@H](Cc1cnc[nH]1)C(=O)NC(Cc1ccccc1)C(=O)N[C@@H](CCCNC(=N)N)C(=O)N[C@H](Cc1csc2ccccc12)C(N)=O (stereo in doubt)
7,260,CC(=O)N[C@@H](Cc1cnc[nH]1)C(=O)NC(Cc1ccccc1)C(=O)N[C@@H](CCCNC(=N)N)C(=O)N[C@H](Cc1cccc2ccccc12)C(N)=O (stereo in doubt)
8,1000,CC(=O)N[C@@H](Cc1c[nH]cn1)C(=O)NC(Cc1ccccc1)C(=O)N[C@@H](CCCN=C(N)N)C(=O)NC(Cc1ccccc1)C(N)=O (stereo in doubt)
9,240,CC(=O)N[C@@H](Cc1cnc[nH]1)C(=O)N[C@H](Cc1ccccc1)C(=O)N[C@@H](CCCN=C(N)N)C(=O)NC(Cc1c[nH]c2ccccc12)C(N)=O (stereo in doubt)
10,5400,CC(=O)N[C@@H](Cc1cnc[nH]1)C(=O)NC(Cc1ccccc1)C(=O)N[C@@H](CCCNC(=N)N)C(=O)N[C@@H](Cc1cccc2ccccc12)C(N)=O (stereo in doubt)
11,46.2,CC(=O)N[C@@H](Cc1c[nH]cn1)C(=O)NC(Cc1ccccc1)C(=O)N[C@@H](CCCN=C(N)N)C(=O)NC(Cc1ccc2ccccc2c1)C(N)=O (stereo in doubt)
12,2700,CC(=O)N[C@@H](Cc1c[nH]cn1)C(=O)NC(Cc1ccccc1)C(=O)N[C@@H](CCCN=C(N)N)C(=O)N[C@H](Cc1ccc(-c2ccccc2)cc1)C(N)=O (stereo in doubt)
13,1500,CC(=O)N[C@@H](Cc1cnc[nH]1)C(=O)NC(Cc1ccccc1)C(=O)N[C@@H](CCCNC(=N)N)C(=O)N[C@@H](Cc1ccc(-c2ccccc2)cc1)C(N)=O (stereo in doubt)
14,8120,CC(=O)N[C@@H](Cc1cnc[nH]1)C(=O)NC(Cc1ccccc1)C(=O)N[C@@H](CCCNC(=N)N)C(=O)N[C@H](Cc1cccs1)C(N)=O (stereo in doubt)
15,27600,CC(=O)N[C@@H](Cc1cnc[nH]1)C(=O)NC(Cc1ccccc1)C(=O)N[C@@H](CCCNC(=N)N)C(=O)N[C@H](Cc1cnc[nH]1)C(N)=O (stereo in doubt)
16,15.8,CC(=O)N[C@@H](Cc1c[nH]cn1)C(=O)NC(Cc1ccccc1)C(=O)N[C@@H](CCCN=C(N)N)C(=O)N[C@H](Cc1ccc2ccccc2c1)C(N)=O (stereo in doubt)
17,7800,CC(=O)N[C@@H](Cc1cnc[nH]1)C(=O)NC(Cc1ccccc1)C(=O)N[C@@H](CCCNC(=N)N)C(=O)NC(C(N)=O)C(c1ccccc1)c1ccccc1 (stereo in doubt)

# Target: Melanocortin receptor 3 (Mus musculus, UniProt P33033)
# Sequence (P33033 whole entry): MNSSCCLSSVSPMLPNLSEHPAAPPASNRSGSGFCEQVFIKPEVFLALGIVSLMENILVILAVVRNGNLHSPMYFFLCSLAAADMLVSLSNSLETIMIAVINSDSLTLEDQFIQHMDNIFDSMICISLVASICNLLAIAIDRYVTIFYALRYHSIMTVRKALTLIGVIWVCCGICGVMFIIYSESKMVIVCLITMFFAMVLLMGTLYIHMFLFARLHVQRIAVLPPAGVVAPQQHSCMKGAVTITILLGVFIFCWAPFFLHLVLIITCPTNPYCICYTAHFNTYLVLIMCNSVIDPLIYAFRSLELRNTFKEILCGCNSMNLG
# Test: Activity in mouse melanocortin-3 receptor (mMC3R) stably expressed in HEK293 cells
# Type: cell-based
row,EC50 [nM],SMILES
1,23200,CC(=O)N[C@@H](Cc1cnc[nH]1)C(=O)N[C@H](Cc1ccccc1)C(=O)N[C@@H](CCCN=C(N)N)C(=O)N1Cc2ccccc2C[C@H]1C(N)=O
2,> 100000,CC(=O)N[C@@H](Cc1cnc[nH]1)C(=O)N[C@H](Cc1ccccc1)C(=O)N[C@@H](CCCN=C(N)N)C(=O)N1Cc2ccccc2C[C@@H]1C(N)=O
3,> 100000,CC(=O)N[C@@H](Cc1c[nH]cn1)C(=O)N[C@H](Cc1ccccc1)C(=O)N[C@@H](CCCN=C(N)N)C(=O)N[C@@H](C)C(N)=O

# Target: Melanocyte-stimulating hormone receptor (Mus musculus, UniProt Q01727)
# Sequence (Q01727 whole entry): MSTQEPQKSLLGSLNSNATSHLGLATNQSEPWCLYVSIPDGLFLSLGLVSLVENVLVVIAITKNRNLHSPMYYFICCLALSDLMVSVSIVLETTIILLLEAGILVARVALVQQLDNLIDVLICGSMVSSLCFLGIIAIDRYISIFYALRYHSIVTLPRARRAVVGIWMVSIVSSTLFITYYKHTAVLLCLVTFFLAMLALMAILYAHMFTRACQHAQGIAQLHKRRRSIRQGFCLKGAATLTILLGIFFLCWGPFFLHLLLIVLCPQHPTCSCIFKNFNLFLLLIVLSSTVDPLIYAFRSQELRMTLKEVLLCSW
# Test: Activity in mouse melanocortin-1 receptor stably expressed in HEK293 cells
# Type: cell-based
row,EC50 [nM],SMILES
1,2300,CC(=O)N[C@@H](Cc1c[nH]cn1)C(=O)N[C@H](Cc1ccccc1)C(=O)N[C@@H](CCCN=C(N)N)C(=O)N[C@H](C(N)=O)C(c1ccccc1)c1ccccc1
2,530,CC(=O)N[C@@H](Cc1c[nH]cn1)C(=O)N[C@H](Cc1ccccc1)C(=O)N[C@@H](CCCN=C(N)N)C(=O)N[C@@H](Cc1ccccc1)C(N)=O
3,43,CC(=O)N[C@@H](Cc1cnc[nH]1)C(=O)N[C@H](Cc1ccccc1)C(=O)N[C@@H](CCCN=C(N)N)C(=O)N1Cc2ccccc2C[C@H]1C(N)=O
4,1500,CC(=O)N[C@@H](Cc1cnc[nH]1)C(=O)N[C@H](Cc1ccccc1)C(=O)N[C@@H](CCCN=C(N)N)C(=O)N1Cc2ccccc2C[C@@H]1C(N)=O
5,4400,CC(=O)N[C@@H](Cc1c[nH]cn1)C(=O)N[C@H](Cc1ccccc1)C(=O)N[C@@H](CCCN=C(N)N)C(=O)N[C@@H](C)C(N)=O
6,79.9,CC(=O)N[C@@H](Cc1cnc[nH]1)C(=O)NC(Cc1ccccc1)C(=O)N[C@@H](CCCNC(=N)N)C(=O)N[C@H](Cc1csc2ccccc12)C(N)=O (stereo in doubt)
7,730,CC(=O)N[C@@H](Cc1cnc[nH]1)C(=O)NC(Cc1ccccc1)C(=O)N[C@@H](CCCNC(=N)N)C(=O)N[C@H](Cc1cccc2ccccc12)C(N)=O (stereo in doubt)
8,2500,CC(=O)N[C@@H](Cc1c[nH]cn1)C(=O)NC(Cc1ccccc1)C(=O)N[C@@H](CCCN=C(N)N)C(=O)NC(Cc1ccccc1)C(N)=O (stereo in doubt)
9,750,CC(=O)N[C@@H](Cc1cnc[nH]1)C(=O)NC(Cc1ccccc1)C(=O)N[C@@H](CCCNC(=N)N)C(=O)N[C@@H](Cc1cccc2ccccc12)C(N)=O (stereo in doubt)
10,127,CC(=O)N[C@@H](Cc1c[nH]cn1)C(=O)NC(Cc1ccccc1)C(=O)N[C@@H](CCCN=C(N)N)C(=O)NC(Cc1ccc2ccccc2c1)C(N)=O (stereo in doubt)
11,51.9,CC(=O)N[C@@H](Cc1c[nH]cn1)C(=O)NC(Cc1ccccc1)C(=O)N[C@@H](CCCN=C(N)N)C(=O)N[C@H](Cc1ccc(-c2ccccc2)cc1)C(N)=O (stereo in doubt)
12,310,CC(=O)N[C@@H](Cc1cnc[nH]1)C(=O)NC(Cc1ccccc1)C(=O)N[C@@H](CCCNC(=N)N)C(=O)N[C@@H](Cc1ccc(-c2ccccc2)cc1)C(N)=O (stereo in doubt)
13,2780,CC(=O)N[C@@H](Cc1cnc[nH]1)C(=O)NC(Cc1ccccc1)C(=O)N[C@@H](CCCNC(=N)N)C(=O)N[C@H](Cc1cccs1)C(N)=O (stereo in doubt)
14,3800,CC(=O)N[C@@H](Cc1cnc[nH]1)C(=O)NC(Cc1ccccc1)C(=O)N[C@@H](CCCNC(=N)N)C(=O)N[C@H](Cc1cnc[nH]1)C(N)=O (stereo in doubt)
15,17.9,CC(=O)N[C@@H](Cc1c[nH]cn1)C(=O)NC(Cc1ccccc1)C(=O)N[C@@H](CCCN=C(N)N)C(=O)N[C@H](Cc1ccc2ccccc2c1)C(N)=O (stereo in doubt)
16,680,CC(=O)N[C@@H](Cc1cnc[nH]1)C(=O)NC(Cc1ccccc1)C(=O)N[C@@H](CCCNC(=N)N)C(=O)NC(C(N)=O)C(c1ccccc1)c1ccccc1 (stereo in doubt)

# Target: Melanocortin receptor 5 (Mus musculus, UniProt P41149)
# Sequence (P41149 whole entry): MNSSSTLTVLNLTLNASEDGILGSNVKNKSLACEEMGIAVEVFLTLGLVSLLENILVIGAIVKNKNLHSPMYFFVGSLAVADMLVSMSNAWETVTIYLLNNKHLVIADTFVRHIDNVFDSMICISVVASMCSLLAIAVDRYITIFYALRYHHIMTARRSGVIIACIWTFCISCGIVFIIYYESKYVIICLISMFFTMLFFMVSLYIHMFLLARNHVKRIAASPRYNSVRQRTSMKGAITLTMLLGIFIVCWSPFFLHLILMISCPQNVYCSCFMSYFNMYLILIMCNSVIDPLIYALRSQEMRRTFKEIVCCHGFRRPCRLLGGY
# Test: Activity in mouse melanocortin-5 receptor stably expressed in HEK293 cells
# Type: cell-based
row,EC50 [nM],SMILES
1,7100,CC(=O)N[C@@H](Cc1c[nH]cn1)C(=O)N[C@H](Cc1ccccc1)C(=O)N[C@@H](CCCN=C(N)N)C(=O)N[C@H](C(N)=O)C(c1ccccc1)c1ccccc1
2,890,CC(=O)N[C@@H](Cc1c[nH]cn1)C(=O)N[C@H](Cc1ccccc1)C(=O)N[C@@H](CCCN=C(N)N)C(=O)N[C@@H](Cc1ccccc1)C(N)=O
3,700,CC(=O)N[C@@H](Cc1cnc[nH]1)C(=O)N[C@H](Cc1ccccc1)C(=O)N[C@@H](CCCN=C(N)N)C(=O)N1Cc2ccccc2C[C@H]1C(N)=O
4,24800,CC(=O)N[C@@H](Cc1cnc[nH]1)C(=O)N[C@H](Cc1ccccc1)C(=O)N[C@@H](CCCN=C(N)N)C(=O)N1Cc2ccccc2C[C@@H]1C(N)=O
5,38400,CC(=O)N[C@@H](Cc1c[nH]cn1)C(=O)N[C@H](Cc1ccccc1)C(=O)N[C@@H](CCCN=C(N)N)C(=O)N[C@@H](C)C(N)=O
6,47.7,CC(=O)N[C@@H](Cc1cnc[nH]1)C(=O)NC(Cc1ccccc1)C(=O)N[C@@H](CCCNC(=N)N)C(=O)N[C@H](Cc1csc2ccccc12)C(N)=O (stereo in doubt)
7,33.1,CC(=O)N[C@@H](Cc1cnc[nH]1)C(=O)NC(Cc1ccccc1)C(=O)N[C@@H](CCCNC(=N)N)C(=O)N[C@H](Cc1cccc2ccccc12)C(N)=O (stereo in doubt)
8,470,CC(=O)N[C@@H](Cc1c[nH]cn1)C(=O)NC(Cc1ccccc1)C(=O)N[C@@H](CCCN=C(N)N)C(=O)NC(Cc1ccccc1)C(N)=O (stereo in doubt)
9,35.3,CC(=O)N[C@@H](Cc1cnc[nH]1)C(=O)N[C@H](Cc1ccccc1)C(=O)N[C@@H](CCCN=C(N)N)C(=O)NC(Cc1c[nH]c2ccccc12)C(N)=O (stereo in doubt)
10,750,CC(=O)N[C@@H](Cc1cnc[nH]1)C(=O)NC(Cc1ccccc1)C(=O)N[C@@H](CCCNC(=N)N)C(=O)N[C@@H](Cc1cccc2ccccc12)C(N)=O (stereo in doubt)
11,12.1,CC(=O)N[C@@H](Cc1c[nH]cn1)C(=O)NC(Cc1ccccc1)C(=O)N[C@@H](CCCN=C(N)N)C(=O)NC(Cc1ccc2ccccc2c1)C(N)=O (stereo in doubt)
12,100,CC(=O)N[C@@H](Cc1c[nH]cn1)C(=O)NC(Cc1ccccc1)C(=O)N[C@@H](CCCN=C(N)N)C(=O)N[C@H](Cc1ccc(-c2ccccc2)cc1)C(N)=O (stereo in doubt)
13,150,CC(=O)N[C@@H](Cc1cnc[nH]1)C(=O)NC(Cc1ccccc1)C(=O)N[C@@H](CCCNC(=N)N)C(=O)N[C@@H](Cc1ccc(-c2ccccc2)cc1)C(N)=O (stereo in doubt)
14,850,CC(=O)N[C@@H](Cc1cnc[nH]1)C(=O)NC(Cc1ccccc1)C(=O)N[C@@H](CCCNC(=N)N)C(=O)N[C@H](Cc1cccs1)C(N)=O (stereo in doubt)
15,36000,CC(=O)N[C@@H](Cc1cnc[nH]1)C(=O)NC(Cc1ccccc1)C(=O)N[C@@H](CCCNC(=N)N)C(=O)N[C@H](Cc1cnc[nH]1)C(N)=O (stereo in doubt)
16,4.86,CC(=O)N[C@@H](Cc1c[nH]cn1)C(=O)NC(Cc1ccccc1)C(=O)N[C@@H](CCCN=C(N)N)C(=O)N[C@H](Cc1ccc2ccccc2c1)C(N)=O (stereo in doubt)
17,7440,CC(=O)N[C@@H](Cc1cnc[nH]1)C(=O)NC(Cc1ccccc1)C(=O)N[C@@H](CCCNC(=N)N)C(=O)NC(C(N)=O)C(c1ccccc1)c1ccccc1 (stereo in doubt)
